Laboratory results from PubChem BioAssay (NCI).
Several values for one entry are separate records, joined by “and”; a condition that tells them apart may be missing. Identical values can stand only once.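 Interpolation was linear, between the two tested concentrations surrounding the appropriate level; five concentrations were tested over 48 hours in 96-well plates. Abbreviation: GI50, concentration required for 50% inhibition of growth. At the TGI there is no net growth.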

What was measured:
Assay in all cases: DTP human tumour cell line panel, 48 h
[1] = test system: MOLT-4 leukemia
[2] = test system: UO-31 renal
[3] = test system: LOX IMVI melanoma
[4] = test system: ACHN renal
[5] = test system: CAKI-1 renal
[6] = test system: EKVX NSCLC
[7] = test system: OVCAR-5 ovarian
[8] = test system: M14 melanoma
[9] = test system: M19-MEL melanoma
[10] = test system: DLD-1 colon

Row | Compound | TGI [1] | TGI [2] | TGI [3] | TGI [4] | TGI [5] | TGI [6] | TGI [7] | TGI [8] | GI50 [1] | GI50 [2] | GI50 [3] | GI50 [4] | GI50 [5] | GI50 [6] | GI50 [7] | GI50 [8] | TGI [9] | TGI [10]
1 | COC(=O)C1=COC2OC3C(C(C)O)C(=O)OC34C=CC1C24 (configuration not stated) | > 100 µM | > 100 µM | > 100 µM | > 100 µM | > 100 µM | > 100 µM | > 100 µM | > 100 µM |  |  |  |  |  |  |  |  |  | 
2 | COc1cc2c3c(n(CCCN4CCNCC4)c(=O)c2cc1OC)-c1cc2c(cc1C3=O)OCO2 | 0.533 µM | 10.6 µM | 0.757 µM | 0.283 µM | 2.02 µM | 17.2 µM | 6.77 µM | 7.31 µM | 5 nM | 1190 nM | 73.2 nM | 39.4 nM | 128 nM | 8510 nM | 1750 nM | 1090 nM |  | 
3 | CCCCCCC1N=C(N)N=C(N)N1c1cccc(Cl)c1 (configuration not stated) | 17.8 µM | 97.5 µM | 13.2 µM | > 100 µM | > 78.5 µM | 19.3 µM | 23.1 µM | 15.5 µM | 940 nM | 31500 nM | 91.7 nM | 9280 nM | 21800 nM | 307 nM | 794 nM | 668 nM |  | 
4 | CNS(=O)(=O)OCC1OC(n2cnc3cncnc32)C(O)C1O (configuration not stated) | > 100 µM | > 100 µM | > 100 µM | > 100 µM | > 100 µM | > 100 µM | > 100 µM | > 100 µM | > 100000 nM | > 100000 nM | > 100000 nM | > 100000 nM | > 100000 nM | > 100000 nM | > 100000 nM | > 100000 nM |  | 
5 | Cc1cc(Cl)nc2ccc(Cc3ccc4nc(Cl)cc(C)c4c3)cc12 | > 100 µM | > 100 µM | > 100 µM | 70.8 µM | > 100 µM | > 100 µM | > 100 µM | > 100 µM |  |  |  |  |  |  |  |  |  | 
6 | NC(=O)c1cccc2c(N[C@H](CN3CCC3)c3ccc(Cl)c(C(F)(F)F)c3)ncnc12 | 3.46 µM | 4.91 µM | 14.7 µM | 13.5 µM | 3.39 µM | 10.3 µM | 13.5 µM | 3.69 µM | 257 nM | 306 nM | 2730 nM | 1380 nM | 232 nM | 878 nM | 1770 nM | 1470 nM |  | 
7 | Oc1cc(N2CC2)c(O)cc1N1CC1 | 7.89 µM | 0.818 µM | 2.42 µM | 0.59 µM | 0.332 µM | 9.87 µM | 9.93 µM | 1.93 µM | 591 nM | 164 nM | 322 nM | 219 nM | 86 nM | 2620 nM | 1880 nM | 511 nM |  | 
8 | c1ccc2c(c1)SC(=C1Sc3ccccc3S1)S2 | > 100 µM | > 100 µM | > 100 µM | > 100 µM | > 100 µM | > 100 µM |  | > 100 µM |  |  |  |  |  |  |  |  | > 100 µM | > 100 µM
9 | CC(=O)OCC12CN(C#N)C3C4COC(CC41)C1(C(=O)N(C)c4ccccc41)C32 (configuration not stated) | > 100 µM | 31.4 µM | 49.1 µM | 38 µM | 82.9 µM | 88.9 µM | > 100 µM | 61.9 µM |  |  |  |  |  |  |  |  |  | 
10 | CC(c1cc(Cl)ccc1O)c1cc(Cl)ccc1O | 10.3 µM | 10.8 µM | 17.1 µM | 14.1 µM | 16.4 µM | 13.4 µM | 26.7 µM | 9.82 µM | 3300 nM | 2300 nM | 3970 nM | 3990 nM | 2610 nM | 2980 nM | 11100 nM | 2970 nM |  | 
11 | O=[N+]([O-])c1ccc(/C=C/c2nc3ccc(Cl)cc3[nH]2)cc1 | > 100 µM | > 100 µM | > 100 µM | 50.9 µM | 91 µM | > 100 µM | > 100 µM | > 100 µM | 59700 nM | 30000 nM | 27200 nM | 17800 nM | 34600 nM | > 100000 nM | > 100000 nM | > 100000 nM |  | 
12 | O=C(/C=C/C12c3ccccc3C(c3ccccc31)C1C(=O)N(c3ccc(Cl)cc3)C(=O)C12)c1ccccn1 (configuration not stated) | > 100 µM | 0.399 µM | 0.358 µM | 0.56 µM | 4.95 µM | 2.38 µM | 1.14 µM | 1.19 µM | 322 nM | 178 nM | 177 nM | 234 nM | 1070 nM | 381 nM | 309 nM | 300 nM |  | 
13 | [O-]/N=[N+](/[O-])C1CCCCC1=[N+]1CCOCC1 (configuration not stated) | > 100 µM | > 100 µM |  | > 100 µM | > 100 µM | > 100 µM | > 100 µM | > 100 µM |  |  |  |  |  |  |  |  | > 100 µM | 
14 | Cc1ccc(F)c(NC(=O)Nc2ccc(-c3cccc4[nH]nc(N)c34)cc2)c1 | > 42.9 µM | 11.3 µM and > 10 µM | 3.62 µM and 4.97 µM | 11.4 µM and > 10 µM | 10.1 µM and > 10 µM | 16.6 µM and > 10 µM | 9.11 µM and > 10 µM | 15.5 µM and > 10 µM | 3130 nM and 3080 nM | 2790 nM and 2910 nM | 1800 nM and 2030 nM | 3140 nM and 2850 nM | 2830 nM and 3850 nM | 3580 nM and 3520 nM | 2740 nM and 3420 nM | 3630 nM and 3580 nM |  | 
15 | O=C(O)CCCCn1ccc(=O)[nH]c1=O | > 100 µM | > 100 µM | > 100 µM | > 100 µM | > 100 µM | > 100 µM | > 100 µM | > 100 µM |  |  |  |  |  |  |  |  |  | 
16 | COC(=O)c1ccc2nc(-c3cc4ccccc4n3C)n(CCCCOc3cc4c(cc3OC)C(=O)N3CCC[C@H]3C=N4)c2c1 |  | 2.19 µM | 1.74 µM | 6.75 µM | 4.85 µM | 6.46 µM | 2.06 µM | 2.07 µM | 298 nM | 389 nM | 592 nM | 1170 nM | 953 nM | 2410 nM | 811 nM | 713 nM |  | 
17 | OCC1OC2c3ccccc3COC2C1OCc1ccccc1 (configuration not stated) | > 100 µM | > 100 µM |  | > 100 µM | > 100 µM | > 100 µM | > 100 µM | > 100 µM |  |  |  |  |  |  |  |  | > 100 µM | > 100 µM
